In data set [1] the test system is KB-VIN20c. The data set can be described thus: Cell growth inhibition, vincristine-resistant KB-VIN20c cells. Format: cell-based. As for the experimental part: (§1) The KB oral carcinoma cell line was provided by M. Fisher (Pharmacology, UNC- Chapel Hill). The isolation and properties of the etoposide-resistant sub-clone, KB-7d, and the camptothecin-resistant line, KB-CPT100, were reported in P. Ferguson et al., Cancer Res. 48:5956 (1988) and D. Beidler et al., Cancer Res. 56:345 (1996), and are discussed briefly hereinafter. The vincristine-resistant sub-clone, KB-VIN20c was isolated by selection in 20 nM vincristine and over-expresses the P-glycoprotein multidrug-resistant drug-efflux protein (unpublished results).
(§2) All cell types were propagated in RPMI-1640 medium supplemented with 5% (v/v) fetal calf serum and 100 μg/mL kanamycin at 37° in a humidified atmosphere of 5% CO2 and 95% air. Over the course of the experiments, doubling times of cells were 24±4 hours.
(§3) Fifty thousand cells were plated in 25 cm^2 flasks (Falcon, N.J., USA) and incubated overnight. The medium was supplemented with test compounds at various concentrations and cultures were incubated for 48-51 hours (for about two cell doublings) before cells were trypsinized and then counted using a hemacytometer. The number of treated cells which excluded 0.5% (v/v) trypan blue were expressed as a percentage of the growth measured in control cultures. Compounds were evaluated in at least two independent experiments and the combined results were analyzed as scatter plots with dose-responses being computer fitted by linear regression at the 95% confidence level using Graphpad Software., San Diego, Calif. The IC50 concentrations which inhibited cell growth by fifty percent relative to control were interpolated from graphed results.

For data set [2], the system named is KB-VIN20c. The data set can be described thus: Cytotoxicity measured as reduced plating efficiency, KB-VIN20c cells. Format: cell-based. The conditions noted are these: 3 h, read-out: Cytotoxicity Measured as Reduced Plating Efficiency IC50. As for the experimental part:
(§4) LC50 concentrations were determined by treating cells for three hours with different concentrations of compounds then replating cells to measure colony formation and plating efficiency as the percent of total cells forming colonies. Compounds were evaluated in three independent experiments. The plating efficiences of untreated cells varied between experiments with values ranging from 14-31% for KB, 31-56% for KB-7d, 16-38% for KB-VIN20c and 21-36% for KB-CPT100. A concentration of compound that reduced plating efficiency by fifty percent relative to control, the LC50, was determined graphically as stated in the preceding section.

The test system of data set [3] is KB-CPT100. Description: Cell growth inhibition, camptothecin-resistant KB-CPT100 cells. Format: cell-based. As for the experimental part:
as §1, §2, §3

The test system of data set [4] is KB-7d. Description: Cytotoxicity measured as reduced plating efficiency, KB-7d cells. To be noted: KB7D, 3 h, read-out: Cytotoxicity Measured as Reduced Plating Efficiency IC50. Format: cell-based. The procedure:
as §4

Data set [5] has as its system KB oral carcinoma cell line. Description: Cell growth inhibition, KB cells. The conditions noted are these: Homo sapiens, KB. Format: cell-based. The procedure: as §1, §2, §3
In a further data set the test system is KB. The data set can be described thus: Cytotoxicity measured as reduced plating efficiency, KB cells. In kind it is cell-based. To be noted: Homo sapiens, 3 h, read-out: Cytotoxicity Measured as Reduced Plating Efficiency IC50. The procedure:
as §4

Data set [6] has as its system KB cells. Description: Gel lysis assay for genomic DNA breaks. Format: cell-based. The conditions noted are these: for genomic DNA fragmentation: three hours; for reversal of genomic DNA fragmentation upon drug removal: additional hour in fresh media. The procedure: One million KB cells in 25cm^2 flasks were treated for three hours with test compound, the medium was discarded then cells were scraped into ice-cold PBS and harvested by centrifugation. Washed cell pellets were resuspended in eighty microliters of a 37° C. gel solution [1% (w/v) low-melting point agarose in PBS], and were cast in a mold and refrigerated to form 6×7×2 mm agarose plugs. Plugs of cells were incubated in lysis-digestion buffer (0.4M EDTA, 0.01 Tris (HCl, pH 8.0), 1% (w/v) N-lauryl-sarcosine and 100 μg/mL proteinase K) at 37° overnight or 50° for one hour. The treated plugs were equilibrated in TBE buffer and placed against a gel comb in a horizontal gel casting tray (BRL Inc., H4 system format). A 55° gel solution containing 0.8% (w/v) agarose in TBE was poured and allowed to gel. Electrophoresis was at 3.5 v/cm (measured between electrodes) for 16 hours at 4° without buffer re-circulation. The gel was stained with 1 μg/mL ethidium bromide in water, treated overnight at 25° C. with RN'ase (1 μg/mL), and then photographed under UV illumination. For the reversibility studies, treated cells were washed with PBS and incubated with fresh media for an additional hour before harvesting for plug preparation and gel analysis.

The target of data set [7] is T1, calf thymus DNA topoisomerase I (Bos taurus, UniProt F1MN93).
T1 construct: Calf thymus DNA topoisomerases were purchased from TopoGen Inc., Columbus, Ohio; purchased TopoGen Inc., Columbus, Ohio; host or cells: calf thymus (tissue-derived enzyme)
T1 sequence (F1MN93 1-767): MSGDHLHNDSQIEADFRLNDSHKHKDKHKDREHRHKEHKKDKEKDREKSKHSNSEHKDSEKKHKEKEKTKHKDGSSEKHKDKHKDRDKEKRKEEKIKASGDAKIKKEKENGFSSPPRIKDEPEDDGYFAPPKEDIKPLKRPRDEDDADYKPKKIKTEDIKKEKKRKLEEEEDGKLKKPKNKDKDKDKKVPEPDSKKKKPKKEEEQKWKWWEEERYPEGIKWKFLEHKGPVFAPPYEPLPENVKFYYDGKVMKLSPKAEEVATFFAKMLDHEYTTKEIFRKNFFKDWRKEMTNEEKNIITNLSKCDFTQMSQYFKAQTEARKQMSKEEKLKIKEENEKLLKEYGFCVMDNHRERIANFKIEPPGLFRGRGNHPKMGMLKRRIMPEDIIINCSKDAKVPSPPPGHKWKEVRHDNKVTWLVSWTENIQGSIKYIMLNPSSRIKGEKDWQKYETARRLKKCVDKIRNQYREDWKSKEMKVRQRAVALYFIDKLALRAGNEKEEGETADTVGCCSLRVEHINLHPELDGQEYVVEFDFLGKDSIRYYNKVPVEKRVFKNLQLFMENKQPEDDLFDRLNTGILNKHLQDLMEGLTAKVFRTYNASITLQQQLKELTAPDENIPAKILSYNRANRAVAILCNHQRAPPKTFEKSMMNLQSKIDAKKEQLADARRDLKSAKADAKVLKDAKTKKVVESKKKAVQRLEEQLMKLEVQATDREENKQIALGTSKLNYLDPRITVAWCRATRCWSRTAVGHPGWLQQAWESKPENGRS
The data set can be described thus: In vitro topoisomerase-DNA cleavage assay, topoisomerase I. In kind it is biochemical. The text has this: (§5) Calf thymus DNA topoisomerases were purchased from TopoGen Inc., Columbus, Ohio. Tritium-labeled thymidine (60-90 ci/mmol) for labeling cellular DNA to measure protein-DNA complexes and αP^32-labeled deoxycytidine triphosphate (>3000 ci/mmol) were obtained from ICN Biochemicals Inc., Irvine, Calif. The latter radiochemical was used with a T4-DNA polymerase polymerase-labeling system from BRL Inc., Gaithersburg, Md., to prepare P^32-plasmid DNA for in vitro cleavage assays. Tissue culture reagents were purchased from Sigma Chemical Co., St. Louis, Mo., and Gibco-BRL Inc. All other chemicals were reagent grade.
(§6) The detailed method used to measure stimulation of cleavable complexes in vitro is described in K. Bastow et al., Planta Med. 59:195 (1993).. Briefly, incubated cleavage reactions containing one nanogram of P^32 end-labeled linearized PBR322 DNA, one unit of enzyme and test compound were divided equally for analysis. One portion was prepared for gel electrophoresis with subsequent autoradiography and protein-DNA complexes in the remaining sample were analyzed using the potassium-SDS precipitation method and scintillation spectrometry.

Data set [8] concerns KB-7d. Description: Cell growth inhibition, etoposide-resistant KB-7d cells. Format: cell-based. The procedure:
as §1, §2, §3

The subject of data set [9] is KB oral carcinoma cell line. To be noted: KB growth inhibition; cited from earlier work.
In data set [10] the test system is KB cells. The data set can be described thus: Cellular protein-DNA complex formation (potassium-SDS precipitation). To be noted: one micromolar and lower; one hour. Format: cell-based. The procedure:
Stimulation of intracellular protein associated DNA breaks was measured using a standard assay method described in Y. Kashiwada et al., J. Pharm. Sci. 82:487 (1993). Briefly, KB cells were labeled overnight with tritiated thymidine (0.5 μCi/mL), chased for two hours and then treated in triplicate with test compounds at various concentrations. After one hour, samples were processed and protein-DNA complexes were measured as potassium-SDS precipitable radioactivity.

Data set [11] deals with KB-7d. To be noted: relative to KB; cited from earlier work.
Data set [12] deals with calf thymus DNA topoisomerase II. The data set can be described thus: In vitro topoisomerase-DNA cleavage assay, topoisomerase II. In kind it is biochemical.
From the text: as §5, §6

Data set [13] relates to KB-CPT100. To be noted: relative to KB; cited from earlier work.
Setting [14] is: fifty-times the IC50 for KB growth inhibition (etoposide eight, 4b four, 3 0.4, S-2 0.8 micromolar).
Where [15] appears, read: ten micromolar, S-1 vs 3, 4a, S-2 vs 3, 4b.

The structures appear in SMILES notation. Where two headings read alike, the source gives them in different places. A value given as a limit tells only on which side of the number the result lay.

`CC[C@@]1(O)C(=O)OCc2c1cc1n(c2=O)Cc2c-1nc1ccccc1c2C=O` [Compound 3, 7-formyl camptothecin, reference compound]: the IC50 was 18 nM with KB-VIN20c [1] (XB-VIN20c (so in the source), 48-51 hours, two numbers in brackets after the value, read-out: Cell Growth Inhibition IC50); 12000 nM with KB-VIN20c [2]; 575 nM in the data set with KB-CPT100 [3] (KBCPT100, KB-CPT100, 48-51 hours, two numbers in brackets after the value, read-out: Cell Growth Inhibition IC50); more than 16000 nM in the data set on KB-7d [4]; 7 nM in data set [5] (read-out: estimated IC50, KB cell growth); 7 nM in [5] (48-51 hours, two numbers in brackets after the value, read-out: Cell Growth Inhibition IC50). The 50% inhibitory concentration (IC50) in the data set on KB turned out to be 10000 nM; in the data set on KB-7d [8] (KB7D, KB-7d, 48-51 hours, two numbers in brackets after the value, read-out: Cell Growth Inhibition IC50), 9 nM. In the data set on KB-VIN20c [1] (relative to KB), the “cross-resistance of KB-VIN20c cells, growth inhibition” value is “no more than 2 fold”. Also, the “cross-resistance of KB-CPT100 cells, growth inhibition” value with KB-CPT100 [3] (relative to KB) was “about 58 fold”. The “genomic DNA fragmentation” value is “inactive” with KB cells [6] (setting [14]) and “marginal fragmentation” in the data set with KB cells [6] (twenty-fold higher concentration (3 at sixteen micromolar)). The “reversal of genomic DNA fragmentation upon drug removal” value with KB cells [6] (twenty-fold higher concentration) was “not affected by reversing treatment”. The “stimulation of topoisomerase I cleavage activity, dose behaviour” value in [7] (higher test concentrations) is recorded as “not inhibited at higher test concentrations”. For the same compound, in the data set with KB-7d [8] (relative to KB), the “cross-resistance of KB-7d cells, growth inhibition” value is given as “equally active”.

Regarding `COc1cc([C@@H]2c3cc4c(cc3[C@@H](O[C@@H]3O[C@@H]5CO[C@@H](C)O[C@H]5[C@H](O)[C@H]3O)[C@H]3COC(=O)[C@H]23)OCO4)cc(OC)c1O` [Compound C-1, etoposide, reference compound], the concentration for half-maximal inhibition (IC50) in data set [9] is 160 ± 40 nM. Moreover, the “intracellular protein-DNA complex formation” value with KB cells [10] is listed as “no measurable response”. Also, in the data set on KB-7d [11], the “resistance of KB-7d cells” value is 145 fold. The “stimulation of in vitro topoisomerase II cleavable-complexes, dose behaviour” value in data set [12] is “act saturably”. For the same compound, the results for the “stimulation of topoisomerase II-induced DNA cleavage over enzyme control” value in [12] (fifty micromolar), in data set [12] (one micromolar) and in data set [12] (ten micromolar) were 12 fold, 1.5 fold and 3 fold, respectively. In addition, the “reversal of genomic DNA fragmentation upon drug removal” value in the data set with KB cells [6] (fifty-times the IC50) is “integrity of the DNA was restored”. For the same compound, in the data set with KB cells [6] (setting [14]), the “genomic DNA fragmentation” value is reported as “High molecular weight DNA fragments were detected”.

For `CC[C@@]1(O)C(=O)OCc2c1cc1n(c2=O)Cc2cc3ccccc3nc2-1` [Compound C-2, camptothecin], in data set [9], the IC50 is 9.8 ± 3.2 nM. Moreover, the “resistance of KB-CPT100 cells to growth-inhibitory effect” value in the data set on KB-CPT100 [13] is given as 32 fold.

With `CC[C@@]1(O)C(=O)OCc2c1cc1n(c2=O)Cc2c-1nc1ccccc1c2/C=N\c1ccc(N[C@@H]2c3cc4c(cc3[C@@H](c3cc(OC)c(O)c(OC)c3)[C@H]3C(=O)OC[C@@H]32)OCO4)cc1` [Compound S-1], the melting point is > 300 °C (dec.). In addition, the “cleavable complex formation with topoisomerase II” value in [12] (ten micromolar, FIG. 1A) is reported as “induced cleavable complexes”. In addition, the “topoisomerase II cleavable complex activity relative to unconjugated components” value in data set [12] (setting [15]) was “reduced about two-fold”. The “cleavable complex formation with topoisomerase I” value in data set [7] (ten micromolar, FIG. 1A) is “induced cleavable complexes”. Further, the “topoisomerase I cleavable complex activity relative to unconjugated components” value in [7] (setting [15]) is “reduced about two-fold”.

For orientation: IC50 means the midpoint of a concentration-inhibition curve. As usually defined, the melting point is the temperature of the solid-liquid transition.

(Values after patent US6420377B1, “Covalent conjugates of topoisomerase I and topoisomerase II inhibitors” (priority 1997, dated 2002).)
